In patent US8778973B2, “Alkene oxindole derivatives” (Hoffmann-La Roche Inc., priority 2009, dated 2014):

System: Recombinant human AMPK proteins (α1β1γ1, α2β1γ1, α1(1-335), α1(1-394) or α2(1-394))
Assay: Scintillation Proximity Assay (SPA) of AMPK activation
Format: biochemical
Details: activator concentration for 50% of maximal enzyme activity; 50 nM recombinant AMPK, 2 μM ATP, 30° C., 2 hr
Experimental: Recombinant human AMPK α1β1γ1, α2β1γ1 or AMPK α subunit truncations α1(1-335), α1(1-394) and α2(1-394) were constructed, expressed and purified as described previously (Pang, T., Zhang, Z. S., Gu, M., Qiu, B. Y., Yu, L. F., Cao, P. R., Shao, W., Su, M. B., Li, J. Y., Nan, F. J., and Li, J. (2008)). Rat liver AMPK heterotrimer enzyme was obtained from Upstate (Billerica, Mass., U.S.A.).
Scintillation Proximity Assay
Before the Scintillation Proximity Assay (SPA) assay, 200 nM recombinant AMPK proteins (α1β1γ1, α2β1γ1, α1(1-335), α1(1-394) or α2(1-394)) were fully phosphorylated as described previously (Pang et al., 2008). SPA reactions were performed in 96-well plates at a final volume of 501 containing 20 mM Tris-HCl pH 7.5, 5 mM MgCl2, 1 mM DTT, 2 μM biotin-SAMS, 2 μM ATP, 0.2 μCi/well [γ-^33P]ATP, and various amount of activator. Reactions were initiated by the addition of 50 nM recombinant AMPK proteins to the reaction solutions and incubated at 30° C. for 2 hr. After that, reactions were terminated by the addition of 401 stop solution containing 80 μg streptavidin-coated SPA beads per well, 50 mM EDTA, 0.1% Triton X-100 in PBS, pH 7.5 and incubated for 1 hr. Finally, a 160 ul suspension solution containing 2.4 M CsCl, 50 mM EDTA, and 0.1% Triton X-100 in PBS (pH 7.5) was added to the reaction solution to suspend SPA beads completely. SPA signals were determined with a Wallac MicroBeta plate counter (PerkinElmer) 30 min later for calculation of the amount of product formed. The amount of products formed in 2 hr was plotted against activator concentrations to determine the effective concentration of the activator (EC50) required for 50% of maximal enzyme activity.
Compounds as described above have EC50 values between 0.5 uM and 50 uM, preferred compounds have EC50 values between 0.5 uM and 10 uM, particularly preferred compounds have EC50 values between 0.5 uM and 1 uM.

How did the EC50 turn out when `CCOC(=O)COc1ccc(CN2C(=O)/C(=C(\c3ccccc3)c3ccc(Cl)cc3)c3ccccc32)cc1` [Example 36, (4-{3-[1-(4-Chloro-phenyl)-1-phenyl-meth-(E)-ylidene]-2-oxo-2,3-dihydro-indol-1-ylmethyl}-phenoxy)-acetic acid ethyl ester] was run?
Its EC50 is 3.69 µM.

`COC(=O)c1cccc(CN2C(=O)/C(=C(\c3ccccc3)c3cc(C(F)(F)F)ccc3Cl)c3ccccc32)c1` [Example 24, 3-{3-[1-(2-Chloro-5-trifluoromethyl-phenyl)-1-phenyl-meth-(E)-ylidene]-2-oxo-2,3-dihydro-indol-1-ylmethyl}-benzoic acid methyl ester] was tested. Which EC50 did it give?
Its EC50 is 4.82 µM.

How did the EC50 turn out when `COC(=O)c1cccc(CN2C(=O)/C(=C(/CCC(C)C)c3ccccc3)c3ccccc32)c1` [Example 77, 3-[3-(4-Methyl-1-phenyl-pent-(Z)-ylidene)-2-oxo-2,3-dihydro-indol-1-ylmethyl]-benzoic acid methyl ester] was run?
The EC50 was 2.58 µM.

Which EC50 does the source give for `O=C(O)c1cccc(CN2C(=O)/C(=C(\c3ccccc3)c3ccc(F)cc3)c3ccccc32)c1` [Example 45, 3-{3-[1-(4-Fluoro-phenyl)-1-phenyl-meth-(E)-ylidene]-2-oxo-2,3-dihydro-indol-1-ylmethyl}-benzoic acid] here?
The EC50 was 1.89 µM.

For `COC(=O)c1cccc(CN2C(=O)/C(=C(\c3ccccc3)c3ccc(C#N)cc3)c3ccccc32)c1` [Example 11, 3-{3-[1-(4-Cyano-phenyl)-1-phenyl-meth-(E)-ylidene]-2-oxo-2,3-dihydro-indol-1-ylmethyl}-benzoic acid methyl ester], which EC50 is on record?
Its EC50 is 3.11 µM.

`COC(=O)c1cccc(CN2C(=O)/C(=C(\c3ccccc3)c3ccc(Cl)cc3)c3ccc(F)cc32)c1` [Example 26, 3-{3-[1-(4-Chloro-phenyl)-1-phenyl-meth-(E)-ylidene]-6-fluoro-2-oxo-2,3-dihydro-indol-1-ylmethyl}-benzoic acid methyl ester] was tested. Which EC50 did it give?
Its EC50 is 1.25 µM.

Which EC50 does the source give for `O=C(O)c1cccc(CN2C(=O)/C(=C(\c3ccccc3)c3ccc(Cl)cc3)c3cc(Cl)ccc32)c1` [Example 74, 3-{5-Chloro-3-[1-(4-chloro-phenyl)-1-phenyl-meth-(E)-ylidene]-2-oxo-2,3-dihydro-indol-1-ylmethyl}-benzoic acid] here?
Its EC50 is 3.17 µM.

With `CCOC(=O)c1csc(CN2C(=O)/C(=C(\c3ccccc3)c3ccc(Cl)cc3)c3ccccc32)n1` [Example 39, 2-{3-[1-(4-Chloro-phenyl)-1-phenyl-meth-(E)-ylidene]-2-oxo-2,3-dihydro-indol-1-ylmethyl}-thiazole-4-carboxylic acid ethyl ester] as the compound, how does the EC50 read?
The EC50 was 1.57 µM.

How did the EC50 turn out when `COC(=O)c1cccc(CN2C(=O)/C(=C(\c3ccccc3)c3ccc(F)c(Cl)c3)c3ccccc32)c1` [Example 13, 3-{3-[1-(3-Chloro-4-fluoro-phenyl)-1-phenyl-meth-(E)-ylidene]-2-oxo-2,3-dihydro-indol-1-ylmethyl}-benzoic acid methyl ester] was run?
Its EC50 is 1.86 µM.

Which EC50 does the source give for `COC(=O)c1cccc(CN2C(=O)/C(=C(\c3ccccc3)c3ccsc3)c3ccccc32)c1` [Example 33, 3-{2-Oxo-3-[1-phenyl-1-thiophen-3-yl-meth-(E)-ylidene]-2,3-dihydro-indol-1-ylmethyl}-benzoic acid methyl ester] here?
Its EC50 is 5.56 µM.

Which EC50 does the source give for `COC(=O)c1cccc(CN2C(=O)/C(=C(/CC(C)(C)C)c3ccccc3)c3ccccc32)c1` [Example 78, 3-{3-[3,3-Dimethyl-1-phenyl-but-(Z)-ylidene]-2-oxo-2,3-dihydro-indol-1-ylmethyl}-benzoic acid methyl ester] here?
Its EC50 is 1.6 µM.

With `COC(=O)c1cccc(CN2C(=O)/C(=C(\CC(C)(C)C)c3ccccc3)c3ccccc32)c1` [Example 80, 3-{3-[3,3-Dimethyl-1-phenyl-but-(E)-ylidene]-2-oxo-2,3-dihydro-indol-1-ylmethyl}-benzoic acid methyl ester] as the compound, how does the EC50 read?
The EC50 was 5.8 µM.

`C/C(=C1\C(=O)N(CC(=O)O)c2ccccc21)c1ccccc1` [Example 4, [2-Oxo-3-(1-phenyl-ethylidene)-2,3-dihydro-indol-1-yl]-acetic acid] was tested. Which EC50 did it give?
The EC50 was 5.25 µM.

`O=C(O)c1cccc(CN2C(=O)/C(=C(\c3ccccc3)c3ccc(C(F)(F)F)cc3)c3ccccc32)c1` [Example 48, 3-{2-Oxo-3-[1-phenyl-1-(4-trifluoromethyl-phenyl)-meth-(E)-ylidene]-2,3-dihydro-indol-1-ylmethyl}-benzoic acid] was tested. Which EC50 did it give?
Its EC50 is 3.15 µM.

With `O=C(O)c1cccc(CN2C(=O)/C(=C(\c3ccccc3)c3ccc(Cl)cc3)c3cc(F)ccc32)c1` [Example 53, 3-{3-[1-(4-Chloro-phenyl)-1-phenyl-meth-(E)-ylidene]-5-fluoro-2-oxo-2,3-dihydro-indol-1-ylmethyl}-benzoic acid] as the compound, how does the EC50 read?
The EC50 was 5.89 µM.

`CCOC(=O)c1cccc(N2C(=O)/C(=C(\C)c3ccccc3)c3ccccc32)c1` [Example 1, 3-[2-Oxo-3-(1-phenyl-ethylidene)-2,3-dihydro-indol-1-yl]-benzoic acid ethyl ester] was tested. Which EC50 did it give?
Its EC50 is 2.21 µM.

For `COC(=O)c1cccc(CN2C(=O)/C(=C(\c3ccccc3)c3ccc(C)cc3)c3ccccc32)c1` [Example 9, 3-{2-Oxo-3-[1-phenyl-1-p-tolyl-meth-(E)-ylidene]-2,3-dihydro-indol-1-ylmethyl}-benzoic acid methyl ester], which EC50 is on record?
Its EC50 is 2.16 µM.

With `O=C(O)c1cccc(CN2C(=O)/C(=C(\c3ccccc3)c3ccc(F)c(F)c3)c3ccccc32)c1` [Example 72, 3-{3-[1-(3,4-Difluoro-phenyl)-1-phenyl-meth-(E)-ylidene]-2-oxo-2,3-dihydro-indol-1-ylmethyl}-benzoic acid] as the compound, how does the EC50 read?
Its EC50 is 3.3 µM.

`O=C(O)c1cccc(CN2C(=O)/C(=C(\c3ccccc3)c3ccccc3OC(F)(F)F)c3ccccc32)c1` [Example 49, 3-{2-Oxo-3-[1-phenyl-1-(2-trifluoromethoxy-phenyl)-meth-(E)-ylidene]-2,3-dihydro-indol-1-ylmethyl}-benzoic acid] was tested. Which EC50 did it give?
Its EC50 is 1.75 µM.

With `COC(=O)c1cccc(CN2C(=O)/C(=C(\c3ccccc3)c3cccc(Cl)c3)c3ccccc32)c1` [Example 16, 3-{3-[1-(3-Chloro-phenyl)-1-phenyl-meth-(E)-ylidene]-2-oxo-2,3-dihydro-indol-1-ylmethyl}-benzoic acid methyl ester] as the compound, how does the EC50 read?
The EC50 was 1.53 µM.

For `COC(=O)c1cccc(CN2C(=O)/C(=C(/c3ccc(Cl)cc3)C3CCCCC3)c3ccccc32)c1` [Example 87, 3-{3-[1-(4-Chloro-phenyl)-1-cyclohexyl-meth-(E)-ylidene]-2-oxo-2,3-dihydro-indol-1-ylmethyl}-benzoic acid methyl ester], which EC50 is on record?
Its EC50 is 10.7 µM.

With `O=C(O)c1cccc(CN2C(=O)/C(=C(\c3ccccc3)c3ccccc3Cl)c3ccccc32)c1` [Example 75, 3-{3-[1-(2-Chloro-phenyl)-1-phenyl-meth-(E)-ylidene]-2-oxo-2,3-dihydro-indol-1-ylmethyl}-benzoic acid] as the compound, how does the EC50 read?
Its EC50 is 1.84 µM.

With `COC(=O)Cc1cccc(N2C(=O)/C(=C(\C)c3ccccc3)c3ccccc32)c1` [Example 2, (3-{2-Oxo-3-[1-phenyl-eth-(E)-ylidene]-2,3-dihydro-indol-1-yl}-phenyl)-acetic acid methyl ester] as the compound, how does the EC50 read?
Its EC50 is 1.49 µM.

For `O=C(O)c1ccccc1CN1C(=O)/C(=C(\c2ccccc2)c2ccc(Cl)cc2)c2ccccc21` [Example 56, 2-{3-[1-(4-Chloro-phenyl)-1-phenyl-meth-(E)-ylidene]-2-oxo-2,3-dihydro-indol-1-ylmethyl}-benzoic acid], which EC50 is on record?
Its EC50 is 4.24 µM.

With `O=C(O)c1cccc(CN2C(=O)/C(=C(/c3ccc(Cl)cc3)C3CCCCC3)c3ccccc32)c1` [Example 104, 3-{3-[1-(4-Chloro-phenyl)-1-cyclohexyl-meth-(E)-ylidene]-2-oxo-2,3-dihydro-indol-1-ylmethyl}-benzoic acid] as the compound, how does the EC50 read?
Its EC50 is 4.63 µM.

With `COC(=O)c1cccc(CN2C(=O)/C(=C(\c3ccccc3)c3ccc(Cl)cc3)c3cc(OC)ccc32)c1` [Example 22, 3-{3-[1-(4-Chloro-phenyl)-1-phenyl-meth-(E)-ylidene]-5-methoxy-2-oxo-2,3-dihydro-indol-1-ylmethyl}-benzoic acid methyl ester] as the compound, how does the EC50 read?
Its EC50 is 4.13 µM.

For `O=C(O)c1cccc(CN2C(=O)/C(=C(\c3ccccc3)c3ccc(Cl)cc3)c3cccc(F)c32)c1` [Example 73, 3-{3-[1-(4-Chloro-phenyl)-1-phenyl-meth-(E)-ylidene]-7-fluoro-2-oxo-2,3-dihydro-indol-1-ylmethyl}-benzoic acid], which EC50 is on record?
The EC50 was 5.14 µM.

Which EC50 does the source give for `O=C(O)c1cccc(CN2C(=O)/C(=C(\c3ccccc3)c3ccc(Cl)cc3)c3ccc(F)cc32)c1` [Example 61, 3-{3-[1-(4-Chloro-phenyl)-1-phenyl-meth-(E)-ylidene]-6-fluoro-2-oxo-2,3-dihydro-indol-1-ylmethyl}-benzoic acid] here?
The EC50 was 4.93 µM.
